Data reported in ChEMBL document CHEMBL1909514, “Imidazo[2,1-b]thiazole guanylhydrazones as RSK2 inhibitors” (Eur J Med Chem, 2011).
Calls of active or inactive are those of the source. No rule for the calls is given here.

Assays:
[1] = biological target: T1, Aurora kinase A (Homo sapiens) (UniProt O14965); experiment: Inhibition of Aurora kinase A assessed as inhibition of substrate phosphorylation using fluorescent peptide substrate up to 100 uM by microplate reader assay
T1 sequence (whole entry): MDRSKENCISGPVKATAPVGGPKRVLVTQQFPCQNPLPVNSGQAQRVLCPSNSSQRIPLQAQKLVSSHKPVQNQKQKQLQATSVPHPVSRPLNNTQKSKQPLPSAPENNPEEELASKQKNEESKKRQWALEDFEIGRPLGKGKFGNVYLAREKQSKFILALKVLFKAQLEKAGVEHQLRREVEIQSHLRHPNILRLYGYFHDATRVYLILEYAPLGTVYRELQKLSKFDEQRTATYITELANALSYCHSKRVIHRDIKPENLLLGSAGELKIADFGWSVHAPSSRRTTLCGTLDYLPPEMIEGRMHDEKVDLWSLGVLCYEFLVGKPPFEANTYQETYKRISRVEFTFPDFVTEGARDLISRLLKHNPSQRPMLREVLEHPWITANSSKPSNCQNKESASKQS

[2] = biological target: Ribosomal protein S6 kinase alpha-3 (Homo sapiens, UniProt P51812)
Description: Inhibition of RSK2 assessed as inhibition of substrate phosphorylation using fluorescent peptide substrate by microplate reader assay

[3] = biological target: Serine/threonine-protein kinase Chk2 (Homo sapiens, UniProt O96017)
Description: Inhibition of CHK2 assessed as inhibition of substrate phosphorylation using fluorescent peptide substrate by microplate reader assay

[4] = biological target: T2, Serine/threonine-protein kinase Chk1 (Homo sapiens, UniProt O14757)
T2 sequence (O14757 whole entry): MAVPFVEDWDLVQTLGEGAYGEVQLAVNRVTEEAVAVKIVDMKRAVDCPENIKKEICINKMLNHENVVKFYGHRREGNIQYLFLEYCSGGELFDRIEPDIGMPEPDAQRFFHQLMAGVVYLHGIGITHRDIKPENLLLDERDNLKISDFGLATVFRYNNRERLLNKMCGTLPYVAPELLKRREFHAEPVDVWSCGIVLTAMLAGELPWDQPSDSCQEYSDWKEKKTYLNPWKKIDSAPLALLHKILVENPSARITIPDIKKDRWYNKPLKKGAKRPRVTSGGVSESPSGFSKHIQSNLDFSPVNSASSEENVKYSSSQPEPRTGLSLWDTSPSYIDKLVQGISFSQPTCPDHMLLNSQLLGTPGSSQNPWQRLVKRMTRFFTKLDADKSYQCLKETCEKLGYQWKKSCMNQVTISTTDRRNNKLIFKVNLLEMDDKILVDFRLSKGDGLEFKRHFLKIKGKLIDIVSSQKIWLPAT
Description: Inhibition of CHK1 assessed as inhibition of substrate phosphorylation using fluorescent peptide substrate by microplate reader assay

Sequence of Serine/threonine-protein kinase Chk2 (O96017 whole entry): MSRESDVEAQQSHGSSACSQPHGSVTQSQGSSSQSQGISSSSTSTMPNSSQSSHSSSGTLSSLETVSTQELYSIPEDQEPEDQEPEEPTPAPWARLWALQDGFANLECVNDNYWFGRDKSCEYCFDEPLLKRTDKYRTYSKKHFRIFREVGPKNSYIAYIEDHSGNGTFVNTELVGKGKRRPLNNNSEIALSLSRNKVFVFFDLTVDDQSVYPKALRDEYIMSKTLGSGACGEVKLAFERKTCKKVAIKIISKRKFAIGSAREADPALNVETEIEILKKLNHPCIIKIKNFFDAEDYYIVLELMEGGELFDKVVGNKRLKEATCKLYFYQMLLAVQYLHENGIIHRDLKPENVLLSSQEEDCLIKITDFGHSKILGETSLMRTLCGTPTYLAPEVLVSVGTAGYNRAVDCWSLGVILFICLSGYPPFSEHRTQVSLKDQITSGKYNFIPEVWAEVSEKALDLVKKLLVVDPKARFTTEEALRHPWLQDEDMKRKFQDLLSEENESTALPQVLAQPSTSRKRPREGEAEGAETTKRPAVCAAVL
Sequence of Ribosomal protein S6 kinase alpha-3 (P51812 whole entry): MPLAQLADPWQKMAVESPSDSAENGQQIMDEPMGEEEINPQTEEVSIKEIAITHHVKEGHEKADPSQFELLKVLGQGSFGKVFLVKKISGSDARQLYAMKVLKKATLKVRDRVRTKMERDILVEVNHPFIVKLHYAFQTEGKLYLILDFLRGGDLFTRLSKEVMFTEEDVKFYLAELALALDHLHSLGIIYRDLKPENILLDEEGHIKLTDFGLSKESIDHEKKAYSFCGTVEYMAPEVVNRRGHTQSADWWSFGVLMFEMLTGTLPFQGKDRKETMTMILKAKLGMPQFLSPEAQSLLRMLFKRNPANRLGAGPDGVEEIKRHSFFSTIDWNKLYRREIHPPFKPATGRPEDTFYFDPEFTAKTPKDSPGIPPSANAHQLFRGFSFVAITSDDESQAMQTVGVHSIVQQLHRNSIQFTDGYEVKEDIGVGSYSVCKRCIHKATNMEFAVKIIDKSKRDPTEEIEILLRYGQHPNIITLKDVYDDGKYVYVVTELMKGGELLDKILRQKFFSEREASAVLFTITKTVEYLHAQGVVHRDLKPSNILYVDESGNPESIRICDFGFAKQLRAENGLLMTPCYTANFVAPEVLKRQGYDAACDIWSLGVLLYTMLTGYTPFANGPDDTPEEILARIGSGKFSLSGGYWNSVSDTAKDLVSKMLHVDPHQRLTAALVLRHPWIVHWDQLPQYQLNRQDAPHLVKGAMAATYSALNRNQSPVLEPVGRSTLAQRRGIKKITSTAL

Row | SMILES | inhibition [1] | IC50 [2] [µM] | IC50 [3] [µM] | IC50 [4] [µM]
1 | Fc1ccccc1-c1cn2ccsc2n1 | inactive |  |  | 
2 | O=Cc1c(-c2cccc([N+](=O)[O-])c2F)nc2sccn12 | inactive |  |  | 
3 | O=Cc1c(-c2cc(Cl)sc2Cl)nc2sc3ccccc3n12 | inactive |  |  | 
4 | N=C(N)N/N=C/c1c(-c2cccc([N+](=O)[O-])c2)nc2sccn12 |  | 18.5 | > 100 | > 100
5 | N=C(N)N/N=C/c1c(-c2cc(Cl)sc2Cl)nc2ccccn12 | inactive | > 100 | > 20 | 
6 | Cc1nn2c(/C=N/NC(=N)N)c(-c3cc(Cl)sc3Cl)nc2s1 | inactive | > 100 | > 20 | 
7 | O=[N+]([O-])c1cc(-c2cn3ccsc3n2)ccc1Br | inactive |  |  | 
8 | Cc1cn2cc(-c3ccc(F)cc3)nc2s1 | inactive |  |  | 
9 | O=[N+]([O-])c1ccc(-c2cn3cc(F)sc3n2)cc1 | inactive |  |  | 
10 | Fc1ccc(-c2cn3cc(Cl)sc3n2)cc1 | inactive |  |  | 
11 | Fc1ccc(-c2cn3ccsc3n2)cc1F | inactive |  |  | 
12 | Cc1nn2c(/C=N/NC(=N)N)c(-c3ccc(Cl)c([N+](=O)[O-])c3)nc2s1 |  | 94 | 78 | 
13 | Cc1cn2c(/C=N/NC(=N)N)c(-c3ccc(Cl)c([N+](=O)[O-])c3)nc2s1 |  | 3.76 | 64.8 | > 100
14 | N=C(N)N/N=C/c1c(-c2cccc([N+](=O)[O-])c2)nc2sc(Cl)cn12 |  | 6.03 | > 100 | > 100
15 | COc1cc([N+](=O)[O-])c(OC)cc1-c1nc2sccn2c1/C=N/NC(=N)N |  | 3.58 | 96 | > 100
16 | Cc1cn2c(/C=N/NC(=N)NN)c(-c3ccc(Cl)c([N+](=O)[O-])c3)nc2s1 |  | 18 | > 100 | > 100
17 | O=Cc1c(-c2c(F)cccc2F)nc2sccn12 | inactive |  |  | 
18 | Clc1cc(-c2nc3ccccn3c2/C=N/NC2=NCCN2)c(Cl)s1 | inactive | > 100 | > 20 | 
19 | O=Cc1c(-c2ccc(F)cc2)nc2sccn12 | inactive |  |  | 
20 | Clc1cc(-c2nc3sc4ccccc4n3c2/C=N/NC2=NCCN2)c(Cl)s1 | inactive | > 100 | > 100 | 
21 | CCCc1cn2c(/C=N/NC(=N)N)c(-c3cc([N+](=O)[O-])c(Cl)cc3Cl)nc2s1 |  | 5.97 | > 100 | > 100
22 | O=Cc1c(-c2cc(Cl)sc2Cl)nc2ccccn12 | inactive |  |  | 
23 | Cc1cn2c(/C=N/NC3=NCCN3)c(-c3ccc(Cl)c([N+](=O)[O-])c3)nc2s1 |  | 20.5 | > 100 | > 100
24 | N=C(N)N/N=C\c1c(-c2ccccc2F)nc2sccn12 | inactive | > 100 | > 100 | 
25 | Cc1nn2cc(-c3cc(Cl)sc3Cl)nc2s1 | inactive |  |  | 
26 | N=C(N)N/N=C\c1c(-c2cccc([N+](=O)[O-])c2F)nc2sccn12 | inactive | > 100 | > 100 | 

Row | SMILES | inhibition [1] | IC50 [2] [µM] | IC50 [3] [µM] | IC50 [4] [µM]
27 | N=C(N)N/N=C\c1c(-c2cccc(C(F)(F)F)c2)nc2sccn12 | inactive | > 100 | > 100 | 
28 | N=C(N)N/N=C/c1c(-c2ccc(Cl)c([N+](=O)[O-])c2)nc2sc3ccccc3n12 |  | 7.32 | > 100 | > 100
29 | Cc1cn2c(/C=N/NC(=N)N)c(-c3cccc([N+](=O)[O-])c3)nc2s1 |  | 17.5 | 59 | > 100
30 | COc1cc([N+](=O)[O-])c(OC)cc1-c1nc2sc3ccccc3n2c1C=O | inactive |  |  | 
31 | O=Cc1c(-c2ccc(Br)c([N+](=O)[O-])c2)nc2sccn12 | inactive |  |  | 
32 | N=C(N)N/N=C/c1c(-c2ccc(N)cc2)nc2sccn12 |  | 3 | 67.5 | > 100
33 | N=C(N)N/N=C\c1c(-c2c(F)cccc2F)nc2sccn12 | inactive | > 100 | > 100 | 
34 | Cc1sc2nc(-c3cccnc3)c(/C=N/NC(=N)N)n2c1C |  | 100 | 6.58 | > 100
35 | Fc1cccc(F)c1-c1cn2ccsc2n1 | inactive |  |  | 
36 | CCc1cn2c(/C=N/NC(=N)N)c(-c3cc([N+](=O)[O-])c(Cl)cc3Cl)nc2s1 |  | 83 | 59 | > 20
37 | N=C(N)N/N=C\c1c(-c2cc(F)c(F)cc2F)nc2sccn12 | inactive | > 100 | > 100 | 
38 | O=[N+]([O-])c1cccc(-c2cn3ccsc3n2)c1F | inactive |  |  | 
39 | COc1cc([N+](=O)[O-])c(OC)cc1-c1nc2ccccn2c1C=O | inactive |  |  | 
40 | O=[N+]([O-])c1ccc(-c2cn3cc(Br)sc3n2)cc1 | inactive |  |  | 
41 | O=Cc1c(-c2ccc(F)cc2)nc2sc(Cl)cn12 | inactive |  |  | 
42 | CCCc1cn2c(/C=N/NC(=N)N)c(-c3cccc([N+](=O)[O-])c3)nc2s1 |  | 13.2 | 69.5 | > 100
43 | COc1cc([N+](=O)[O-])c(OC)cc1-c1cn2ccccc2n1 | inactive |  |  | 
44 | Cc1cn2c(/C=N/NC(=N)N)c(-c3cc([N+](=O)[O-])c(Cl)cc3Cl)nc2s1 |  | 4.53 | > 100 | > 100
45 | N=C(N)N/N=C/c1c(-c2ccccc2)nc2sc(Cl)cn12 | inactive | > 100 | > 100 | 
46 | O=Cc1c(-c2ccccc2F)nc2sccn12 | inactive |  |  | 
47 | N=C(N)N/N=C/c1c(-c2ccc([N+](=O)[O-])cc2)nc2sccn12 |  | 5.66 | > 100 | > 100
48 | N#Cc1ccc(-c2nc3sc(Cl)cn3c2C=O)cc1 | inactive |  |  | 
49 | Nc1nn2c(C=O)c(-c3ccccc3)nc2s1 | inactive |  |  | 
50 | Cc1nn2c(C=O)c(-c3cc(Cl)sc3Cl)nc2s1 | inactive |  |  | 
51 | O=[N+]([O-])c1cc(-c2cn3cc(Cl)sc3n2)ccc1F | inactive |  |  | 
52 | O=Cc1c(-c2ccc([N+](=O)[O-])cc2)nc2sc(Br)cn12 | inactive |  |  | 

Row | SMILES | inhibition [1] | IC50 [2] [µM] | IC50 [3] [µM] | IC50 [4] [µM]
53 | Cc1cn2cc(-c3ccc(F)c([N+](=O)[O-])c3)nc2s1 | inactive |  |  | 
54 | Cc1cn2c(C=O)c(-c3ccc(F)cc3)nc2s1 | inactive |  |  | 
55 | O=Cc1c(-c2cc(Cl)sc2Cl)nc2sc(Cl)cn12 | inactive |  |  | 
56 | COc1cc([N+](=O)[O-])c(OC)cc1-c1nc2sc(C)nn2c1/C=N\NC(=N)N | inactive | > 100 | > 20 | 
57 | Clc1cc(-c2cn3ccccc3n2)c(Cl)s1 | inactive |  |  | 
58 | Cc1sc2nc(-c3cc([N+](=O)[O-])c(Cl)cc3Cl)c(/C=N/NC(=N)N)n2c1C |  | 98.5 | > 100 | 
59 | Clc1cc(-c2cn3cc(Cl)sc3n2)c(Cl)s1 | inactive |  |  | 
60 | Fc1cc(F)c(-c2cn3ccsc3n2)cc1F | inactive |  |  | 
61 | Cc1nn2c(/C=N/NC3=NCCN3)c(-c3ccc(Cl)c([N+](=O)[O-])c3)nc2s1 | inactive | > 100 | > 20 | 
62 | N=C(N)N/N=C\c1c(-c2ccccc2)nc2sc(N)nn12 | inactive |  |  | 
63 | O=Cc1c(-c2cc(F)c(F)cc2F)nc2sccn12 | inactive |  |  | 
64 | Clc1cc(-c2nc3sc(Cl)cn3c2/C=N/NC2=NCCN2)c(Cl)s1 | inactive | > 100 | > 20 | 
65 | N#Cc1ccc(-c2cn3cc(Cl)sc3n2)cc1 | inactive |  |  | 
66 | COc1cc([N+](=O)[O-])c(OC)cc1-c1cn2nc(C)sc2n1 | inactive |  |  | 
67 | Clc1cc(-c2cn3c(n2)sc2ccccc23)c(Cl)s1 | inactive |  |  | 
68 | O=Cc1c(-c2ccc(F)c([N+](=O)[O-])c2)nc2sc(Cl)cn12 | inactive |  |  | 
69 | O=Cc1c(-c2ccc(F)c([N+](=O)[O-])c2)nc2sccn12 | inactive |  |  | 
70 | COc1cc([N+](=O)[O-])c(OC)cc1-c1nc2sc(C)nn2c1C=O | inactive |  |  | 
71 | O=Cc1c(-c2ccc([N+](=O)[O-])cc2)nc2sc(F)cn12 | inactive |  |  | 
72 | COc1cc([N+](=O)[O-])c(OC)cc1-c1cn2c(n1)sc1ccccc12 | inactive |  |  | 
73 | O=[N+]([O-])c1cc(-c2cn3ccsc3n2)ccc1F | inactive |  |  | 
74 | O=Cc1c(-c2ccc(F)c(F)c2)nc2sccn12 | inactive |  |  | 
75 | Cc1cn2c(C=O)c(-c3ccc(F)c([N+](=O)[O-])c3)nc2s1 | inactive |  |  | 
76 | N=C(N)N/N=C\c1c(-c2ccc(F)c(F)c2)nc2sccn12 | inactive | > 100 | > 100 | 
